Data published in US5026704A, “Benzo[f]quinoxaline-2,3(1H,4H)-diones” (Novo Nordisk A/S, priority 1987, dated 1991).
≈ marks a conversion by molar mass, not a printed value.

What was measured:
[1] = biological target: quisqualate type receptors; assay: ^3 H-AMPA binding: displacement of ^3 H-AMPA from quisqualate type receptors in cerebral cortical membrane homogenate; set-up: species or system rat; conditions: displacement of 50% of specific ^3 H-AMPA binding; 5 nM ^3 H-AMPA, 0° C., 30 min, pH 7.1
Description: The pharmacological properties of the compounds of the present invention can be illustrated by determining their capability for displacing radioactively labelled 2-amino-3-hydroxy-5-methyl-4-isoxazolepropionic acid (AMPA) from the quisqualate type receptors.
The displacement activity of the compounds may be shown by determining the IC50 value which represents the concentration (μg/ml) which causes a displacement of 50% of the specific binding of ^3 H-AMPA.
500 μl of thawed rat cerebral cortical membrane homogenate in Tris-HCl (30 mM), CaCl2 (2.5 mM) and KSCN (100 mM) pH 7.1 were incubated at 0° C. for 30 min. with 25 μl ^3 H-AMPA (5 nM final concentration) and the test compound and buffer. Nonspecific binding was determined by incubation with L-glutamic acid (600 μM final concentration). The binding reaction was terminated by adding 5 ml of ice-cold buffer followed by filtration through Whatman GF/C glass fibre filters and 2×5 ml wash with ice-cold buffer. Bound radioactivity was measured by scintillation counting. IC50 was determined by Hill analysis of at least four concentrations of test compound.

[2] = system: quisqualic acid stimulated ^3 H-GABA-efflux from cultured cortical neurones; assay: Antagonism of quisqualic acid stimulated ^3 H-GABA efflux from cultured cortical neurones (release experiments); format: cell-based, mouse; conditions: Rattus norvegicus, Cortical neurone; concentration which reduces the rate of quisqualic acid stimulated ^3 H-GABA efflux by 50%; 37° C., pH 7.4

Row | Structure (SMILES) | IC50 [1] [µg/mL] | EC50 [2] [µg/mL]
1 | Cn1c(=O)c(=O)[nH]c2cc([N+](=O)[O-])ccc21 [Compound 7, 1-Methyl-6-nitroquinoxaline-2,3(1H,4H)-dione] | 0.96 (≈ 4.34 µM) | 2.1 (≈ 9.49 µM)
2 | Cn1c(=O)c(=O)[nH]c2c3ccccc3ccc21 [Compound 13, 4-Methylbenzo[f]quinoxaline-2,3(1H,4H)-dione] | 0.42 (≈ 1.86 µM) | 2.1 (≈ 9.28 µM)
3 | O=c1[nH]c2cc([N+](=O)[O-])c(Cl)cc2n(C2CCCCC2)c1=O [Compound 16, 1-Cyclohexyl-6-nitro-7-chlorquinoxaline-2,3(1H,4H)-dione] | 0.69 (≈ 2.13 µM) | 
4 | O=c1[nH]c2c3ccccc3ccc2n(C2CCCCC2)c1=O [Compound 27k, 4-Cyclohexylbenzo[f]quinoxaline-2,3(1H,4H)-dione] | 0.61 (≈ 2.07 µM) | > 4
